Data on 1 compound can be found in US20260306526A1, “COMBINATION THERAPY FOR BACTERIAL INFECTIONS COMPRISING ZINC-CHELATOR, BETA-LACTAM ANTIBIOTIC AND SERINE BETA-LACTAMASE INHIBITOR” (priority 2023, published 2026).

Test [1] relates to Klebsiella pneumoniae K66-45. Nature of the test: MIC determination, fixed concentration of sBLI (Examples 8-9). The class given is cell-based. As to conditions: Example 9; with PIP and TAZ 16 μg/mL; NDM-1; caMHB, 29.4 μM Zn2+. How it is done:
Antimicrobial susceptibility testing (AST) by broth microdilution (MIC determination) was performed according to The European Committee on Antimicrobial Susceptibility Testing (EUCAST) guidelines (see Reading guide for broth microdilution Version 5.0, 2024: https://www.eucast.org).
For combinations containing meropenem as the antibiotic, Sensititre™ FINMER meropenem 64-0.03 μg/mL plates (Thermo Fischer Diagnostics custom plates; YFINMER) were used in most of the experiments. For other antibiotics (and for meropenem whenever a higher start concentration than 64 μg/mL was needed) sterile clear round bottom polystyrene (non-treated) 96-well microplates (Corning 3788) were used for making serial two-fold dilutions of the antibiotic in cation-adjusted Mueller Hinton II broth (caMHB; Thermo Scientific, T3462, containing 29.4 μM Zn^2+ or MILLIPORE, 90922-500G, containing 5.6 μM Zn^2+), across the columns of the microtiter plate (128-0.06 μg/mL; columns 1-12).
The checkerboard plates were all modified by adding a serine β-lactamase inhibitor (sBLI) at a fixed concentration of 16 μg/mL. Additionally, the zinc chelator was added at various fixed concentrations. […]

Test [2] has as its system certain strains of Pseudomonas aeruginosa. As to conditions: with MEM; cited from earlier work.
Test [3] deals with bacteria which rely on SBLs. As to conditions: with MEM; cited from earlier work.

The structures appear in SMILES notation.

In the case of `CN(C[C@H](O)[C@@H](O)[C@H](O)[C@H](O)CO)C(=O)c1ccc(CN(Cc2ccccn2)Cc2ccccn2)nc1` [zinc chelator], the “Synergy with the zinc chelator observed at concentration” value in test [1] was found to be 16 µg/mL. For the same compound, the effect of combination result in test [2] is reported as “poor effect”; in test [3], “no effect”.
